The compounds below were run against Death-associated protein kinase 1 (Homo sapiens, UniProt P53355).
`CCOc1cc2ncc(C#N)c(Nc3ccc(F)c(Cl)c3)c2cc1NC(=O)/C=C/CN(C)C` [PELITINIB] was tested, and the Kd was greater than 10 µM. Compound `Nc1nc(Nc2ccc(S(N)(=O)=O)cc2)nn1C(=O)c1c(F)cccc1F` [JNJ-7706621] has a Kd greater than 10 µM. `Oc1ccc(-c2nc(-c3ccncc3)c(-c3ccc(F)cc3)[nH]2)cc1` [SB-202190] gave a Kd greater than 10 µM. `COCC(=O)NC/C=C/c1ccc2ncnc(Nc3ccc(Oc4ccc(C)nc4)c(C)c3)c2c1` [CP-724714] gave a Kd greater than 10 µM. Compound `NC(=O)c1ccc(-c2nc(-c3ccc4c(c3)OCO4)c(-c3ccccn3)[nH]2)cc1` [SB-431542] has a Kd greater than 10 µM.

Each compound was assayed against Casein kinase I isoform epsilon (Homo sapiens, UniProt P49674).
Work on `CCOc1cc2ncc(C#N)c(Nc3ccc(F)c(Cl)c3)c2cc1NC(=O)/C=C/CN(C)C` [PELITINIB] yielded a Kd of 0.1 µM. `Nc1nc(Nc2ccc(S(N)(=O)=O)cc2)nn1C(=O)c1c(F)cccc1F` [JNJ-7706621] showed a Kd of 3.6 µM. For `Oc1ccc(-c2nc(-c3ccncc3)c(-c3ccc(F)cc3)[nH]2)cc1` [SB-202190], the Kd was 0.17 µM. Work on `COCC(=O)NC/C=C/c1ccc2ncnc(Nc3ccc(Oc4ccc(C)nc4)c(C)c3)c2c1` [CP-724714] yielded a Kd greater than 10 µM.

These compounds were tested against T1, Serine/threonine-protein kinase BRSK1 (Homo sapiens, UniProt Q8TDC3).
T1 sequence (Q8TDC3 whole entry): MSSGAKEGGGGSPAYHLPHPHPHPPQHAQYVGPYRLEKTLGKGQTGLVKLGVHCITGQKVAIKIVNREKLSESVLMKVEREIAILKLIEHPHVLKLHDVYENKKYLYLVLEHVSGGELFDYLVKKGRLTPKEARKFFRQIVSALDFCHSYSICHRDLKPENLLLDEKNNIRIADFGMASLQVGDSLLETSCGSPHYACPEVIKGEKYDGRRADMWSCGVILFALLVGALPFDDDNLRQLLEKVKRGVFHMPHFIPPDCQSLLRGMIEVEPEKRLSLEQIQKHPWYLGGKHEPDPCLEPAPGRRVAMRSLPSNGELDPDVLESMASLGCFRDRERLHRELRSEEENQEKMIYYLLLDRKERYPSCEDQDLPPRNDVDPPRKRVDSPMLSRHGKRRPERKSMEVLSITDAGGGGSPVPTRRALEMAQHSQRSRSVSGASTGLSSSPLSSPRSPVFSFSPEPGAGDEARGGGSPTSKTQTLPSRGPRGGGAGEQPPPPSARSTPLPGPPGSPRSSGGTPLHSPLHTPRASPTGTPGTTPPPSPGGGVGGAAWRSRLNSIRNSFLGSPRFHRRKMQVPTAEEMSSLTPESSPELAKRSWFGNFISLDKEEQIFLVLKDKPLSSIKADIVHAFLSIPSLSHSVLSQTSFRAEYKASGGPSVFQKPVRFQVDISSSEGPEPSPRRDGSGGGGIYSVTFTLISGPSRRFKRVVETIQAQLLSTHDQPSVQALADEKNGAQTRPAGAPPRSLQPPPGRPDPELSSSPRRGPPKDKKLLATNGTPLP
`CCOc1cc2ncc(C#N)c(Nc3ccc(F)c(Cl)c3)c2cc1NC(=O)/C=C/CN(C)C` [PELITINIB] was tested, and the Kd was greater than 10 µM. With `Oc1ccc(-c2nc(-c3ccncc3)c(-c3ccc(F)cc3)[nH]2)cc1` [SB-202190] the Kd was greater than 10 µM. Compound `COCC(=O)NC/C=C/c1ccc2ncnc(Nc3ccc(Oc4ccc(C)nc4)c(C)c3)c2c1` [CP-724714] has a Kd greater than 10 µM. With `NC(=O)c1ccc(-c2nc(-c3ccc4c(c3)OCO4)c(-c3ccccn3)[nH]2)cc1` [SB-431542] the Kd was greater than 10 µM.

The compounds below were run against T2, Serine/threonine-protein kinase BRSK2 (Homo sapiens, UniProt Q8IWQ3).
T2 sequence (Q8IWQ3 whole entry): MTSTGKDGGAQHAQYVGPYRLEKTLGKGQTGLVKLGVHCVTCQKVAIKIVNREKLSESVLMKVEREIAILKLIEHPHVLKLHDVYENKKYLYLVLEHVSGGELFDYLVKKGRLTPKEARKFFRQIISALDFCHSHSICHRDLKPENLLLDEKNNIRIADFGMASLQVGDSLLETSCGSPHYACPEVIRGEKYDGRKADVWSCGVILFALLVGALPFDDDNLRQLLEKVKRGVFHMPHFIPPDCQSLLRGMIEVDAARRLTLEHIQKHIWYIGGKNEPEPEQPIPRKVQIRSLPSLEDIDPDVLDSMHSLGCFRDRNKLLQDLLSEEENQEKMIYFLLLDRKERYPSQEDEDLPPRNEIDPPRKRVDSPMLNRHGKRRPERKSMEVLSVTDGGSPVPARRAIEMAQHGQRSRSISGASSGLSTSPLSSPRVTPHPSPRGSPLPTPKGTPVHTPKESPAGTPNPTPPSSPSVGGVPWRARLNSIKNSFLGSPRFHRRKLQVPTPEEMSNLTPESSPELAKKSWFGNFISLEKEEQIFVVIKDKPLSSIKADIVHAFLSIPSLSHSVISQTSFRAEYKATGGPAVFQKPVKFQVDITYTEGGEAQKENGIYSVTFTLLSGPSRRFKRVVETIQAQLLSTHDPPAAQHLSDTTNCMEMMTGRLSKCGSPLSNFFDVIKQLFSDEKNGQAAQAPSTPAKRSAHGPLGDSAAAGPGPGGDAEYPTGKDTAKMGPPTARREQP
Compound `CCOc1cc2ncc(C#N)c(Nc3ccc(F)c(Cl)c3)c2cc1NC(=O)/C=C/CN(C)C` [PELITINIB] has a Kd greater than 10 µM. For `Nc1nc(Nc2ccc(S(N)(=O)=O)cc2)nn1C(=O)c1c(F)cccc1F` [JNJ-7706621], the Kd was 2.7 µM. Compound `Oc1ccc(-c2nc(-c3ccncc3)c(-c3ccc(F)cc3)[nH]2)cc1` [SB-202190] has a Kd greater than 10 µM. `COCC(=O)NC/C=C/c1ccc2ncnc(Nc3ccc(Oc4ccc(C)nc4)c(C)c3)c2c1` [CP-724714] was tested, and the Kd was greater than 10 µM. `NC(=O)c1ccc(-c2nc(-c3ccc4c(c3)OCO4)c(-c3ccccn3)[nH]2)cc1` [SB-431542] gave a Kd greater than 10 µM.

Each compound was assayed against T3, Tyrosine-protein kinase ZAP-70 (Homo sapiens, UniProt P43403).
T3 sequence (P43403 whole entry): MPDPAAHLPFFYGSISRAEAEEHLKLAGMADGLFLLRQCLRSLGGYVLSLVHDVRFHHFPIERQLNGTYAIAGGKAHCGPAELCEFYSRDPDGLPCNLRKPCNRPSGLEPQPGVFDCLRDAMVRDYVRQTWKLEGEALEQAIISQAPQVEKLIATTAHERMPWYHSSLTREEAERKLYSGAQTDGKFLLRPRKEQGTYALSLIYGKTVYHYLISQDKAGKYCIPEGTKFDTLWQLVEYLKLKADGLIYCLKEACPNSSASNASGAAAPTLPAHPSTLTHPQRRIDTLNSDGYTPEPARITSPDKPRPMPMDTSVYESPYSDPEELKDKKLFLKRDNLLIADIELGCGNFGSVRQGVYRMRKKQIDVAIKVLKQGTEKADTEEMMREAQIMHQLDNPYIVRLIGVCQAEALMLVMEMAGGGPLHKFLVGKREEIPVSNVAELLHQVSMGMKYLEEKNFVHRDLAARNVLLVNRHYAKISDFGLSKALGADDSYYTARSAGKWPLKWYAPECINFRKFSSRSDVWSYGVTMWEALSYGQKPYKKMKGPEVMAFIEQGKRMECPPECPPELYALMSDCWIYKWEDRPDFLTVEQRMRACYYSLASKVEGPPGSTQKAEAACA
In the case of `CCOc1cc2ncc(C#N)c(Nc3ccc(F)c(Cl)c3)c2cc1NC(=O)/C=C/CN(C)C` [PELITINIB], the Kd is reported as greater than 10 µM. `Nc1nc(Nc2ccc(S(N)(=O)=O)cc2)nn1C(=O)c1c(F)cccc1F` [JNJ-7706621] showed a Kd greater than 10 µM. `Oc1ccc(-c2nc(-c3ccncc3)c(-c3ccc(F)cc3)[nH]2)cc1` [SB-202190] gave a Kd greater than 10 µM. With `COCC(=O)NC/C=C/c1ccc2ncnc(Nc3ccc(Oc4ccc(C)nc4)c(C)c3)c2c1` [CP-724714] the Kd was greater than 10 µM. For `NC(=O)c1ccc(-c2nc(-c3ccc4c(c3)OCO4)c(-c3ccccn3)[nH]2)cc1` [SB-431542], the Kd was greater than 10 µM.

The compounds below were run against Ephrin type-A receptor 4 (Homo sapiens, UniProt P54764).
For `CCOc1cc2ncc(C#N)c(Nc3ccc(F)c(Cl)c3)c2cc1NC(=O)/C=C/CN(C)C` [PELITINIB], the Kd was greater than 10 µM. `Nc1nc(Nc2ccc(S(N)(=O)=O)cc2)nn1C(=O)c1c(F)cccc1F` [JNJ-7706621] showed a Kd greater than 10 µM. `Oc1ccc(-c2nc(-c3ccncc3)c(-c3ccc(F)cc3)[nH]2)cc1` [SB-202190] was tested, and the Kd was greater than 10 µM. `COCC(=O)NC/C=C/c1ccc2ncnc(Nc3ccc(Oc4ccc(C)nc4)c(C)c3)c2c1` [CP-724714] gave a Kd greater than 10 µM. For `NC(=O)c1ccc(-c2nc(-c3ccc4c(c3)OCO4)c(-c3ccccn3)[nH]2)cc1` [SB-431542], the Kd was greater than 10 µM.

What follows are compounds tested against Serine/threonine-protein kinase MARK1 (Homo sapiens, UniProt Q9P0L2).
Work on `Oc1ccc(-c2nc(-c3ccncc3)c(-c3ccc(F)cc3)[nH]2)cc1` [SB-202190] yielded a Kd greater than 10 µM. With `COCC(=O)NC/C=C/c1ccc2ncnc(Nc3ccc(Oc4ccc(C)nc4)c(C)c3)c2c1` [CP-724714] the Kd was greater than 10 µM. `NC(=O)c1ccc(-c2nc(-c3ccc4c(c3)OCO4)c(-c3ccccn3)[nH]2)cc1` [SB-431542] gave a Kd greater than 10 µM.

What follows are compounds tested against Serine/threonine-protein kinase PAK 6 (Homo sapiens, UniProt Q9NQU5).
In the case of `CCOc1cc2ncc(C#N)c(Nc3ccc(F)c(Cl)c3)c2cc1NC(=O)/C=C/CN(C)C` [PELITINIB], the Kd is reported as greater than 10 µM. `Oc1ccc(-c2nc(-c3ccncc3)c(-c3ccc(F)cc3)[nH]2)cc1` [SB-202190] was tested, and the Kd was greater than 10 µM. Compound `COCC(=O)NC/C=C/c1ccc2ncnc(Nc3ccc(Oc4ccc(C)nc4)c(C)c3)c2c1` [CP-724714] has a Kd greater than 10 µM. In the case of `NC(=O)c1ccc(-c2nc(-c3ccc4c(c3)OCO4)c(-c3ccccn3)[nH]2)cc1` [SB-431542], the Kd is reported as greater than 10 µM.

Each compound was assayed against High affinity nerve growth factor receptor (Homo sapiens, UniProt P04629).
Work on `CCOc1cc2ncc(C#N)c(Nc3ccc(F)c(Cl)c3)c2cc1NC(=O)/C=C/CN(C)C` [PELITINIB] yielded a Kd greater than 10 µM. `Oc1ccc(-c2nc(-c3ccncc3)c(-c3ccc(F)cc3)[nH]2)cc1` [SB-202190] was tested, and the Kd was greater than 10 µM. `COCC(=O)NC/C=C/c1ccc2ncnc(Nc3ccc(Oc4ccc(C)nc4)c(C)c3)c2c1` [CP-724714] was tested, and the Kd was greater than 10 µM. Compound `NC(=O)c1ccc(-c2nc(-c3ccc4c(c3)OCO4)c(-c3ccccn3)[nH]2)cc1` [SB-431542] has a Kd greater than 10 µM.

Each compound was assayed against Hepatocyte growth factor receptor (Homo sapiens, UniProt P08581).
Compound `CCOc1cc2ncc(C#N)c(Nc3ccc(F)c(Cl)c3)c2cc1NC(=O)/C=C/CN(C)C` [PELITINIB] has a Kd of 6.2 µM. For `Oc1ccc(-c2nc(-c3ccncc3)c(-c3ccc(F)cc3)[nH]2)cc1` [SB-202190], the Kd was greater than 10 µM. `COCC(=O)NC/C=C/c1ccc2ncnc(Nc3ccc(Oc4ccc(C)nc4)c(C)c3)c2c1` [CP-724714] showed a Kd greater than 10 µM. `NC(=O)c1ccc(-c2nc(-c3ccc4c(c3)OCO4)c(-c3ccccn3)[nH]2)cc1` [SB-431542] gave a Kd greater than 10 µM.

From ChEMBL document CHEMBL1150977, “A quantitative analysis of kinase inhibitor selectivity” (Nat Biotechnol, 2008)
